The conditions of series [1]: cited from earlier work.

The values that follow come from US7105173B1, “Nicotine replacement applique” (priority 2002, dated 2006).

`CN1CCCC1c1cccnc1` (centres unmarked) [nicotine]: the “LD50 oral level expressed as total amount for a small infant” value is recorded as “about 250 mg”. For the same compound, in series [1], the LD50 oral level entry was “approximately 55 milligrams per Kilogram of body weight”.
